Measured values as given in PubChem BioAssay AID248 (DTP/NCI, 2004).
Inconclusive results and toxic doses are left out. No stated cut-off is given here; in the data, active means T/C of 150% or more; inactive means T/C below 125%. Peptide text beside a SMILES is read from it. * marks the point of attachment. Trt = c1ccc(C(c2ccccc2)(c2ccccc2)*)cc1; Cbz = O=C(OCc1ccccc1)*; NHNH2 = NN*

Test system: L1210 leukemia ip in BDF1 mice, survival T/C
Test: NCI In Vivo Anticancer Drug Screen. Data for tumor model L1210 Leukemia (intraperitoneal) in B6D2F1 (BDF1) mice
Details: endpoint: mean survival time, higher = longer survival
In short: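 Ratio derived from survival: compound-dosed mice over vehicle-dosed mice, all bearing a transplantable tumor.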

[1] = dose: 100.0 mg/kg/injection, schedule: Q01DX009 (ip), vehicle: saline with Tween-80
[2] = dose: 100.0 mg/kg/injection, schedule: Q04DX003 (ip), vehicle: saline with Tween-80
[3] = dose: 200.0 mg/kg/injection, schedule: Q01DX009 (ip), vehicle: saline with Tween-80
[4] = dose: 200.0 mg/kg/injection, schedule: Q04DX003 (ip), vehicle: saline with Tween-80
[5] = dose: 400.0 mg/kg/injection, schedule: Q04DX003 (ip), vehicle: saline with Tween-80

Measured: T/C

O=C(Cn1ccc(=O)[nH]c1=O)c1ccc(Cl)s1
inactive: [1] 100 % of control | [2] 96 % of control | [3] 97 % of control | [4] 98 % of control | dose: 400.0 mg/kg/injection, schedule: Q01DX009 (ip), vehicle: saline with Tween-80 91 % of control | [5] 104 % of control

NNC(=O)C(Cc1ccc(O)cc1)NC(=O)C(CO)NC(=O)C(CSC(c1ccccc1)(c1ccccc1)c1ccccc1)NC(=O)OCc1ccccc1 (stereo not drawn) (Cbz-Cys(Trt)-Ser-Tyr-NHNH2; configuration not given here)
inactive: dose: 75.0 mg/kg/injection, schedule: Q01DX001 (ip), vehicle: saline 96 % of control | dose: 150.0 mg/kg/injection, schedule: Q01DX001 (ip), vehicle: saline 96 % of control | dose: 300.0 mg/kg/injection, schedule: Q01DX001 (ip), vehicle: saline 90 % of control

Cc1cc[n+](Cc2ccccc2Cl)c(C)c1
inactive: dose: 6.25 mg/kg/injection, schedule: Q01DX009 (ip), vehicle: saline 105 % of control | dose: 6.25 mg/kg/injection, schedule: Q04DX003 (ip), vehicle: saline 96 % of control | dose: 8.0 mg/kg/injection, schedule: Q01DX009 (ip), vehicle: saline 99 % of control | dose: 12.0 mg/kg/injection, schedule: Q01DX009 (ip), vehicle: saline 96 % of control | dose: 12.5 mg/kg/injection, schedule: Q04DX003 (ip), vehicle: saline 102 % of control | dose: 18.0 mg/kg/injection, schedule: Q01DX009 (ip), vehicle: saline 105 % of control | dose: 25.0 mg/kg/injection, schedule: Q01DX009 (ip), vehicle: saline 113 % of control

Nc1cccc(CCCCOc2ccccc2)c1
inactive: [1] 97 % of control | [2] 97 % of control | [3] 98 % of control | [4] 103 % of control | [5] 105 % of control

CNc1c(Cl)c(Cl)cc(Cl)c1Cl
inactive: [1] 104 % of control | [2] 95 % of control | [3] 110 % of control | [4] 114 % of control | [5] 93 % of control

NC(=O)NCc1ccc(CNC(N)=O)cc1
inactive: dose: 100.0 mg/kg/injection, schedule: Q04DX002 (ip), vehicle: saline with Tween-80 98 % of control | dose: 200.0 mg/kg/injection, schedule: Q04DX002 (ip), vehicle: saline with Tween-80 98 % of control | dose: 400.0 mg/kg/injection, schedule: Q04DX002 (ip), vehicle: saline with Tween-80 115 % of control

c1ccc(SC23CC4CC(CC(C4)C2)C3)nc1
inactive: dose: 100.0 mg/kg/injection, schedule: Q01DX003 (ip), vehicle: Klucel (hydroxypropylcellulose) (HPC) 100 % of control | dose: 100.0 mg/kg/injection, schedule: Q04DX003 (ip), vehicle: Klucel (hydroxypropylcellulose) (HPC) 94 % of control | dose: 200.0 mg/kg/injection, schedule: Q01DX003 (ip), vehicle: Klucel (hydroxypropylcellulose) (HPC) 89 % of control | dose: 200.0 mg/kg/injection, schedule: Q04DX003 (ip), vehicle: Klucel (hydroxypropylcellulose) (HPC) 91 % of control | dose: 400.0 mg/kg/injection, schedule: Q01DX003 (ip), vehicle: Klucel (hydroxypropylcellulose) (HPC) 94 % of control | dose: 400.0 mg/kg/injection, schedule: Q04DX003 (ip), vehicle: Klucel (hydroxypropylcellulose) (HPC) 102 % of control

N=C(N)c1ccc(OCCCCOc2ccc(N)cc2Cl)cc1
inactive: dose: 50.0 mg/kg/injection, schedule: Q01DX009 (ip), vehicle: Klucel (hydroxypropylcellulose) (HPC) 111 % of control | dose: 100.0 mg/kg/injection, schedule: Q01DX009 (ip), vehicle: Klucel (hydroxypropylcellulose) (HPC) 97 % of control

NC1=NC=NC(c2ccccc2)N1c1ccccc1F (stereo not drawn)
inactive: dose: 25.0 mg/kg/injection, schedule: Q01DX001 (ip), vehicle: saline 101 % of control | dose: 50.0 mg/kg/injection, schedule: Q01DX001 (ip), vehicle: saline 96 % of control | dose: 100.0 mg/kg/injection, schedule: Q01DX001 (ip), vehicle: saline 104 % of control

C[n+]1ccc(/C=C/c2ccc(O)c3ccccc23)c2ccccc21
inactive: dose: 75.0 mg/kg/injection, schedule: Q01DX001 (ip), vehicle: carboxymethylcellulose (CMC) 100 % of control | dose: 150.0 mg/kg/injection, schedule: Q01DX001 (ip), vehicle: carboxymethylcellulose (CMC) 100 % of control | dose: 300.0 mg/kg/injection, schedule: Q01DX001 (ip), vehicle: carboxymethylcellulose (CMC) 115 % of control
